The text below walks through data of patent publication US7932031B2, “Methods for determining sensitivity to microtubule-stabilizing agents comprising ixabepilone by measuring the level of estrogen receptor 1” (Bristol-Myers Squibb Company, priority 2004, dated 2011).

The assay has as its system invasive stage IIA-IIIB breast adenocarcinoma. The experiment in a line: CA163-080 exploratory genomic phase II study, ixabepilone as neoadjuvant treatment, pathologic complete response (Sataloff classification). The note with it: breast cancer patients, 40 mg/m^2 3-hour infusion on Day 1, up to four 21-day cycles. The assay is classed as in vivo, human. How it is done: CA163-080 is an exploratory genomic phase II study that was conducted in breast cancer patients who received ixabepilone as a neoadjuvant treatment. The primary objective of this study was to identify predictive markers of response to ixabepilone through gene expression profiling of pre-treatment breast cancer biopsies. Patients with invasive stage IIA-IIIB breast adenocarcinoma (tumor size≧3 cm diameter) received 40 mg/m^2 ixabepilone as a 3-hour infusion on Day 1 for up to four 21-day cycles, followed by surgery within 3-4 weeks of completion of chemotherapy. A total of 164 patients were enrolled in this study. Biopsies for gene expression analysis were obtained both pre- and post-treatment. […]
Pathological response was assessed using the Sataloff classification system (D. Sataloff et al., J. Am. Coll. Surg., 180(3):297-306 (1995)) and used as an end point for the pharmacogenomic analysis. The pathologic response was evaluated in the primary tumor site at the end of treatment and prior to surgery by assessing histologic changes compared with baseline as following: At the primary tumor site, cellular modifications were evaluated in both the infiltrating tumoral component and in the possible ductal component, to determine viable residual infiltrating component (% of total tumoral mass); residual ductal component (% of total tumoral mass); the mitotic index. […]

As to `C/C(=C\c1csc(C)n1)[C@@H]1C[C@@H]2O[C@]2(C)CCC[C@H](C)[C@H](O)[C@@H](C)C(=O)C(C)(C)[C@@H](O)CC(=O)N1` [ixabepilone], the pCR response rate was 19.8% (the other sites (excluding Russian sites 16, 24 and 25)); 17.2% (tumors from the three Russian sites (16, 24 and 25)).
